Data taken from US8507460B2, “Substituted 3′,5′-cyclic phosphates of purine nucleotide compounds and pharmaceutical compositions for the treatment of viral infections” (priority 2011, dated 2013).

What was measured:
fresh human hepatocytes = experiment: Release of active metabolite in fresh human hepatocytes; format: in vitro ADME; settings: 10 μM, 6 hr
Method: Plates of fresh human and mouse hepatocytes were obtained on ice. The medium was removed and replaced with hepatocyte culture medium (William's E supplemented with penicillin-streptomycin, 1% L-glutamine, 1% insulin-transferrin-selenium and 0.1 μM Dexamethasone (Invitrogen) or with Invitro GRO HI medium complemented with Torpedo antibiotics (Celsis)). Cells were left overnight in an incubator at 37° C. to acclimatize to culture and the medium.
Hepatocyte incubations were conducted at a final volume of 0.5 mL hepatocyte culture medium/well (0.8 million cells/well for human and 0.5 million cells/well for mouse; 12 well plate no overlay, collagen coat). Culture medium from overnight incubation of cells was removed and replaced with fresh medium, pre-warmed to 37° C., containing 10 μM of test compound from a stock solution in DMSO (final DMSO concentration was 0.1%). At each specific time point, incubation medium was removed and cell monolayers were carefully washed two times with ice-cold PBS. Following the last wash, all PBS was carefully removed and 1.0 mL of extraction solution (ice-cold 70% methanol/30% water) added. Cells were scraped off and suspended in the extraction solution, transferred to 2 mL polypropylene microfuge tubes and intracellular contents extracted overnight at −20° C.
After the overnight treatment the cellular extracts were prepared by centrifugation at 16,000×g for 10 min to remove cellular debris. The remaining sample was then dried using a refrigerated centrivap concentrator. Dry extracts were reconstituted in 1000 μL of HPLC-grade water and centrifuged at 16,000×g for 10 min. Aliquots (100 μL each) of the supernatant were transferred into a 96 well plate and internal standard (4 ng/mL final concentration) was added as the internal standard (IS) for LC-MS/MS analysis.
The incubation time points were 6, 24 and 48 hours for human hepatocytes and 1, 4, 8, 12 and 24 hours for mouse hepatocytes.

HCV genotype 1b replicon = experiment: HCV Replicon Assay (Zluc luciferase reporter); format: cell-based
Method: Huh-7-derived cell line (Zluc) that harbors an HCV genotype 1b replicon and a luciferase reporter gene was grown in Dulbecco's Modified Eagle Medium (DMEM) supplemented with 10% fetal bovine serum, 2 mM GlutaMAX, 1% MEM nonessential amino acids, 100 IU/mL penicillin, 100 μg/mL streptomycin, and 0.5 mg/mL Geneticin® (G418). For dose response testing the cells were seeded in 96-well plates at 7.5×10^3 cells per well in a volume of […], and incubated at 37° C./5% CO2. Drug solutions were made up freshly in Huh-7 media as 2× stocks. […] 5-fold dilutions were prepared from these stocks in DMEM without G418. At least three hours after Zluc cells were seeded, drug treatment was initiated by adding 50 μL of drug dilutions to the plates in duplicate. Final concentrations of drug ranged from 100 μM to 0.0000512 μM. Cells were then incubated at 37° C./5% CO2. Alternatively, compounds were tested at two concentrations (1 μM and 10 μM). […] After 72 hours of incubation, the inhibition of HCV replication was measured by quantification of photons emitted after mono-oxygenation of 5′-fluoroluciferin to oxyfluoroluciferin by firefly luciferase. For this, media was removed from the plates via gentle tapping. Fifty microliters of ONE-glo luciferase assay reagent was added to each well. The plates were shaken gently for 3 min at room temperature and luminescence was measured on a Victor^3 V 1420 multilabel counter (Perkin Elmer) with a 1 second read time using a 700 nm cut-off filter. The EC50 values were calculated from dose response curves from the resulting best-fit equations determined by Microsoft Excel and XLfit 4.1 software. When screening at two fixed concentrations, the results were expressed as % inhibition at 1 μM and 10 μM.

[1] = Stability in liver and intestinal subcellular fractions (microsomes and S9); format: in vitro ADME, human; settings: 10 μM, NADPH, 60 min, percent unchanged
Method: Stability of test compounds were determined in subcellular fractions (microsomes and S9) of human liver and intestine in duplicate for each matrix. Pooled liver and intestinal microsomal, intestinal and liver S9 proteins (1.0 mg/mL), suspended in incubation buffer (100 mM potassium phosphate, pH […], and 0.1 mM EDTA), were preincubated for 5 min at 37° C. with 10 μM of a test compound from a 10 mM stock solution in DMSO (final DMSO concentration was 0.1%); the reaction was initiated by the addition of NADPH (3 mM final concentration). At specific times (0 and 60 min), 0.1 mL samples were taken and the reaction terminated by the addition of 4 volumes of stop solution (acetonitrile with 500 ng/mL carbutamide as an internal standard). The samples were vortexed for 30 sec and then centrifuged at 16,000 g for 10 min. 100 μL of supernatants were transferred to 96 deep-well plates preloaded with 100 μL distilled water and analyzed after mixing by LC-MS/MS. The MS peak area ratio of the test compound versus the internal standard was calculated and percent unchanged test compound over 60 minutes was calculated using this ratio.

## CCOc1nc(N)nc2c1ncn2[C@@H]1O[C@@H]2COP(=O)(OC(C)C)O[C@H]2[C@@]1(C)O (single isomer, unassigned) [Compound 1a]
Fresh human hepatocytes
  FHH TP (6 hr): BLD^a
HCV genotype 1b replicon; HCV replicon assay, Zluc cells
  selectivity index: greater than 100
HCV genotype 1b replicon; Zluc cells (Huh-7-derived, HCV genotype 1b replicon, luciferase reporter), 72 hours
  EC50: ≤ 0.25 µM
[1]; HIS9 1.0 mg/mL
  Stability HIS9 (1 hr): 106%
[1]; human intestinal microsome 1.0 mg/mL
  Stability HIM (1 hr): 107%
[1]; human liver S9 fraction 1.0 mg/mL
  Stability HLS9 (1 hr): 111%
[1]; human liver microsome 1.0 mg/mL
  Stability HLM (1 hr): 100%
